Source: US8912207B2, “2-aldoximino-5-fluoropyrimidine derivatives” (Dow AgroSciences, LLP., priority 2009, dated 2014)
Like-named read-outs stand apart in the source and are kept apart here.

What was measured:
[1] = tested on: Mycosphaerella graminicola; anamorph: Septoria tritici; Bayer code SEPTTR; test: Fungicidal activity: leaf blotch of wheat, one-day protectant (1DP) and three-day curative (3DC) tests on wheat plants; type: in vivo, Septoria tritici on wheat plants (variety Yuma); conditions: Zymoseptoria tritici, rating of % disease control vs untreated inoculated plants
Experimental: Evaluation of Fungicidal Activity: Leaf Blotch of Wheat (Mycosphaerella graminicola; anamorph: Septoria tritici; Bayer code […]) Wheat plants (variety Yuma) were grown from seed in a greenhouse in 50% mineral soil/50% soil-less Metro mix until the first leaf was fully emerged, with 7-10 seedlings per pot. These plants were inoculated with an aqueous spore suspension of Septoria tritici either prior to or after fungicide treatments. After inoculation the plants were kept in 100% relative humidity (one day in a dark dew chamber followed by two to three days in a lighted dew chamber) to permit spores to germinate and infect the leaf. The plants were then transferred to a greenhouse for disease to develop. The following table presents the activity of typical compounds of the present disclosure when evaluated in these experiments. The effectiveness of the test compounds in controlling disease was determined by assessing the severity of disease on treated plants, then converting the severity to percent control based on the level of disease on untreated, inoculated plants. In each case of Table III the rating scale is as follows: […]

[2] = 24 h, one-day protectant, read-out: SEPTTR 25 ppm 1DP
[3] = 24 h, one-day protectant, read-out: SEPTTR 100 ppm 1DP
[4] = 72 h, three-day curative, read-out: SEPTTR 25 ppm 3DC
[5] = 72 h, three-day curative, read-out: SEPTTR 100 ppm 3DC

Compound	melting point	pest or weed control at 25 ppm [1, 2]	pest or weed control at 100 ppm [1, 3]	pest or weed control at 25 ppm [1, 4]	pest or weed control at 100 ppm [1, 5]
CN(Cc1ccccc1)c1nc(ON=Cc2ccccc2)ncc1F [Compound 36]	–	0 to 25%	0 to 25%	26 to 50%	51 to 75%
CC(C)C=NOc1ncc(F)c(NCc2ccccc2)n1 [Compound 25]	–	0 to 25%	26 to 50%	26 to 50%	76 to 100%
Nc1nc(ON=Cc2ccccc2Cl)ncc1F [Compound 5, 2-chlorobenzaldehyde O-(4-amino-5-fluoropyrimidin-2-yl)oxime]	220 to 230 °C (dec.)	76 to 100%	76 to 100%	76 to 100%	76 to 100%
O=CNc1nc(ON=Cc2ccccc2)ncc1F [Compound 4, N-{5-fluoro-2-[1-phenylmethylideneamino-oxy]pyrimidin-4-yl}formamide]	–	76 to 100%	76 to 100%	76 to 100%	76 to 100%
Nc1nc(ON=Cc2ccccc2)ncc1F [Compound 6]	151 to 153 °C	76 to 100%	76 to 100%	76 to 100%	76 to 100%
CC=NOc1ncc(F)c(N(C)Cc2ccc(OC)cc2)n1 [Compound 49]	–	0 to 25%	0 to 25%	0 to 25%	26 to 50%
COc1ccc(C=NOc2ncc(F)c(N(C)Cc3ccc(Cl)cc3)n2)cc1 [Compound 43]	–	0 to 25%	0 to 25%	26 to 50%	26 to 50%
COc1ccc(CNc2nc(ON=CC(C)C)ncc2F)cc1 [Compound 35]	–	0 to 25%	26 to 50%	0 to 25%	76 to 100%
COc1ccc(CNc2nc(ON=Cc3ccccc3)ncc2F)cc1 [Compound 31]	–	26 to 50%	76 to 100%	51 to 75%	76 to 100%
COc1ccc(CNc2nc(ON=Cc3ccc(Cl)cc3)ncc2F)cc1 [Compound 32]	–	0 to 25%	0 to 25%	26 to 50%	76 to 100%
COc1ccc(CN(C)c2nc(ON=Cc3ccccc3)ncc2F)cc1 [Compound 46]	–	0 to 25%	0 to 25%	26 to 50%	76 to 100%
Fc1ccccc1CNc1nc(ON=Cc2ccccc2)ncc1F [Compound 17]	–	76 to 100%	76 to 100%	0 to 25%	0 to 25%
COc1ccc(C=NOc2ncc(F)c(NCc3ccccc3F)n2)cc1 [Compound 19]	–	51 to 75%	76 to 100%	0 to 25%	0 to 25%
COc1ccc(C=NOc2ncc(F)c(NCc3ccc(OC)cc3)n2)cc1 [Compound 33]	–	51 to 75%	76 to 100%	0 to 25%	51 to 75%
CC(C)C=NOc1ncc(F)c(NCc2ccccc2F)n1 [Compound 16, 2-methylpropionaldehyde O-[5-fluoro-4-(2-fluorobenzylamino)pyrimidin-2-yl]oxime]	–	0 to 25%	0 to 25%	51 to 75%	76 to 100%
CC=NOc1ncc(F)c(NCc2ccccc2)n1 [Compound 24]	–	0 to 25%	0 to 25%	0 to 25%	26 to 50%

The next lines start with results.

melting point	Compound	pest or weed control at 25 ppm [1, 2]	pest or weed control at 100 ppm [1, 3]	pest or weed control at 25 ppm [1, 4]	pest or weed control at 100 ppm [1, 5]
176 to 179 °C	CC(C)C=NOc1ncc(F)c(N(C)Cc2ccccc2)n1 [Compound 40]	0 to 25%	0 to 25%	0 to 25%	51 to 75%
250 to 270 °C (dec.)	COc1ccc(C=NOc2ncc(F)c(N)n2)cc1 [Compound 12]	76 to 100%	76 to 100%	76 to 100%	76 to 100%
115 to 116 °C	CN(Cc1ccc(Cl)cc1)c1nc(ON=Cc2ccc(Cl)cc2)ncc1F [Compound 42]	0 to 25%	26 to 50%	0 to 25%	0 to 25%
240 to 250 °C (dec.)	COc1ccccc1C=NOc1ncc(F)c(N)n1 [Compound 9]	76 to 100%	76 to 100%	76 to 100%	76 to 100%
79 to 83 °C	COc1ccc(CN(C)c2nc(ON=Cc3ccc(Cl)cc3)ncc2F)cc1 [Compound 47]	26 to 50%	26 to 50%	26 to 50%	51 to 75%
201 to 220 °C (dec.)	Cc1ccc(C=NOc2ncc(F)c(N)n2)cc1 [Compound 11]	76 to 100%	76 to 100%	76 to 100%	76 to 100%
99 to 100 °C	CC=NOc1ncc(F)c(NCc2ccccc2F)n1 [Compound 20]	26 to 50%	51 to 75%	51 to 75%	76 to 100%
200 to 220 °C (dec.)	Nc1nc(ON=Cc2ccc(Cl)cc2)ncc1F [Compound 8]	76 to 100%	76 to 100%	76 to 100%	76 to 100%
75 to 76 °C	CN(C)c1nc(ON=Cc2ccccc2)ncc1F [Compound 51]	0 to 25%	0 to 25%	0 to 25%	51 to 75%
102 to 105 °C	CC=NOc1ncc(F)c(N)n1 [Compound 10]	76 to 100%	76 to 100%	76 to 100%	76 to 100%
224 to 228 °C (dec.)	CC(C)C=NOc1ncc(F)c(N(C)Cc2ccc(Cl)cc2)n1 [Compound 45]	0 to 25%	0 to 25%	26 to 50%	0 to 25%
243 to 245 °C (dec.)	COc1ccc(C=NOc2ncc(F)c(/N=C/N(C)C)n2)cc1 [Compound 13, N′-{5-Fluoro-2-[1-(4-methoxyphenyl)-methylideneaminooxy]pyrimidin-4-yl}-N,N-dimethylformamidine]	76 to 100%	76 to 100%	76 to 100%	76 to 100%
180 to 194 °C	COc1ccc(C=NOc2ncc(F)c(NCc3ccccc3)n2)cc1 [Compound 23]	0 to 25%	76 to 100%	26 to 50%	26 to 50%
127 to 128 °C	Fc1cnc(ON=Cc2ccccc2)nc1NCc1ccc(Cl)cc1 [Compound 26]	0 to 25%	0 to 25%	26 to 50%	26 to 50%
220 to 230 °C (dec.)	COc1ccccc1C=NOc1ncc(F)c(/N=C/N(C)C)n1 [Compound 14]	76 to 100%	76 to 100%	76 to 100%	76 to 100%
46 to 50 °C	COc1ccc(C=NOc2ncc(F)c(N(C)Cc3ccc(OC)cc3)n2)cc1 [Compound 48]	0 to 25%	0 to 25%	26 to 50%	51 to 75%
214 to 220 °C (dec.)	CC=NOc1ncc(F)c(N(C)Cc2ccc(Cl)cc2)n1 [Compound 44]	–	–	–	–
100 to 103 °C	COc1ccc(C=NOc2ncc(F)c(N(C)Cc3ccccc3)n2)cc1 [Compound 38]	0 to 25%	0 to 25%	26 to 50%	51 to 75%
141 to 142 °C	COc1ccc(C=NOc2ncc(F)c(NCc3ccc(Cl)cc3)n2)cc1 [Compound 28]	0 to 25%	26 to 50%	0 to 25%	0 to 25%
111 to 113 °C	Fc1cnc(ON=Cc2ccccc2)nc1NCc1ccccc1 [Compound 21]	0 to 25%	76 to 100%	51 to 75%	76 to 100%
